From patent US20250388867A1, “COMPOSITION AND METHOD FOR CULTURING ORGANOIDS” (ORGANOIDSCIENCES, LTD., priority 2017, published 2025)

Key:
[1] = test system: small intestinal organoids; test: RT-PCR and qRT-PCR analysis of lineage markers; format: cell-based, mouse
Description: In order to confirm whether lineage markers specific to the small intestinal organoids are expressed when cultured with RS-246204, RNA analysis was performed. The small intestinal organoids cultured in ENR and RS-246204 culture solutions, respectively, for 4 days were collected. RNA was extracted and cDNA was synthesized, and then RT-PCR was performed. As a marker for intestinal stem cells, goblet cells, paneth cells, enteroendocrine cells and enterocyte, RT-PCR was performed using RNA primers for Lgr5, muc-1 and muc-2, defesing-5, chromogranin A (ChgA), and villin, respectively.
For quantitative analysis, qRT-PCR analysis was performed. AccuPower 2X Greenstar qPCR MasterMix (Bioneer) and Thermal Cycler Dice® Real Time System III (Takara, Japan) were used, and the reaction was performed for 10 seconds at 95° C. (denaturation), 15 seconds at 57° C. (annealing), and 20 seconds at 72° C. (extension). The RNA primers excluded Muc1 among those used in the RT-PCR test, changed the enterocyte marker from villin to Intestinal Alkaline Phosphatase (IAP), and used the same sequence for the rest.

[2] = test system: human large intestinal organoids; test: Formation of large intestinal organoids, RS-246204 concentration series (Example 7); format: cell-based
Excerpt: (§1) Large intestinal tissue was isolated from a human patient during surgery and used in experiments for forming organoids. The tissue was cut longitudinally from a proximal end to a distal end, and also laterally cut into pieces of about 5 mm length. The tissue pieces, which were isolated crypts, were washed with ice-cooled Dulbecco's phosphate-buffered saline (DPBS) until the supernatant liquid was sufficiently clear. Then, the crypts were isolated by treating with a Gentle Cell Dissociation Reagent (StemCell Technologies, Cambridge, MA), and filtering with a cell strainer. The crypts were mixed in collagen gel, and placed in each well of a well plate with the composition comprising the compound of the chemical formula 1 (namely, RS-246204). After keeping in a 37° C. humidification incubator (5% CO2) for 5 days, the formed organoids were observed, optical microscope photos were taken for analysis, and organoid counts were analyzed using Leopard iX software.
(§2) The control and experimental groups were classified as follows depending on the components of the medium composition used.
• RS 0 μM group: Basal media (Advanced DMEM/F12 media) not supplemented with RS-246204 (also referred to as “RS”) was used to form human large intestinal organoids. • RS 2.5 μM group: Basal media (Advanced DMEM/F12 media) supplemented with RS-246204 2.5 μM was used to form human large intestinal organoids.
• RS 5 μM group: Basal media (Advanced DMEM/F12 media) supplemented with RS-246204 5[…] μM was used to form human large intestinal organoids. • RS 50 μM group: Basal media (Advanced DMEM/F12 media) supplemented with RS-246204 50 μM was used to form human large intestinal organoids. • RS 100 μM group: Basal media (Advanced DMEM/F12 media) supplemented with RS-246204 100 μM was used to form human large intestinal organoids.

[3] = test system: small intestinal organoids; test: Immunofluorescence analysis; format: cell-based, mouse; details: organoids cultured in ENR and RS-246204 culture solutions
salivary organoids = test: Formation of organoids (Example 8), salivary; format: cell-based, mouse
Excerpt: (§3) Large intestinal tissue, adenoid tissue, and pancreatic cancer tissue were isolated from a patient during surgery and used in experiments for preparing and culturing organoids. Salivary tissue was isolated from a mouse and used in experiments for preparing and culturing organoids.
(§4) Each of the tissues was cut longitudinally from a proximal end to a distal end, and also laterally cut into pieces of about 5 mm length. The piece of the tissues obtained was washed with ice-cooled Dulbecco's phosphate-buffered saline (DPBS) until the supernatant liquid was sufficiently clear. Then, the tissues were isolated by treating with a Gentle Cell Dissociation Reagent (StemCell Technologies, Cambridge, MA), and filtering with a cell strainer. The isolated tissues were mixed in collagen gel, and placed in each well of a well plate. After keeping in 37° C. humidification incubator (5% CO2), the cultured organoids were observed, and optical microscope photos were taken for analysis.

adenoid organoids = test: Formation of organoids (Example 8), adenoid; format: cell-based, human; details: 1 μM
Excerpt: as §3, §4

[4] = test system: pancreatic cancer organoids; test: Formation of organoids (Example 8), pancreatic cancer; format: cell-based, human
Excerpt: as §3, §4

[5] = test system: small intestinal organoids; test: Screening of compound library using organoid proliferation measurement; format: cell-based, mouse; details: 50 μM in EN culture solution, 4 days
Excerpt: Small intestinal crypts were isolated from a mouse to be used in experiments for preparing and culturing small intestinal organoids. Specifically, the small intestine was isolated after killing a 5-7 weeks old C57BL/6 mouse weighing 20-25 g by cervical vertebrae dislocation. The small intestine was cut longitudinally from a proximal end to a distal end, and also laterally cut into pieces of about 5 mm length. The piece of small intestine obtained was washed with ice-cooled Dulbecco's phosphate-buffered saline (DPBS) until the supernatant liquid was sufficiently clear. Then, the crypts were isolated by treating with a Gentle Cell Dissociation Reagent (StemCell Technologies, Cambridge, MA), and filtering with a cell strainer.
Compounds which can replace R-spondin in organoid cultures were screened for 8,364 types of compounds included in a representative library of the Korea Chemical Bank.
The small intestinal crypts derived from the small intestine of a 7-week-old C57BL/6 mouse isolated in Example 1 were mixed in Matrigel, and placed in each well of a 96-well plate. […]
The number of living organoids, the number of budding organoids, and the circumference of each organoid were measured using the optical microscope photos. […] The compounds were ranked based on the measured values, and then 295 candidate compounds were selected to be used in a second screening. […]

[6] = test system: small intestinal organoids; test: Budding characteristics analysis (counts of budding and non-budding organoids); format: cell-based, mouse; details: 4 days
Excerpt: The morphological characteristic of the small intestinal organoids is that they grow while budding. In order to check that the budding rate of the small intestinal organoids grown in the RS-246204-added culture solution (hereinafter, RS-246204 culture solution) is similar to that grown in ENR culture solution, the total number of organoids, the number of budding organoids, and the number of non-budding organoids were counted in the wells culturing for 4 days. The rate of budding organoids and non-budding organoids grown in the culture solution containing 50 μM of RS-246204 is about 1:1, which is similar to the rate of organoids grown in the ENR culture solution (see FIG. 2C).

[7] = test system: small intestinal organoids; test: Subculture of small intestinal organoids; format: cell-based, mouse; details: RS-246204 culture solution
[8] = test system: human large intestinal organoids; test: Formation of large intestinal organoids (Example 6); format: cell-based; details: for organoid formation: 5 days
Excerpt: as §1, with “in” for “in a”, “observed, and” for “observed,”, “analysis.” for “analysis, and organoid counts were analyzed using Leopard iX software.”
as §2
• ENR group: Basal media supplemented with EGF (E), Noggin (N) and R-spondin (R) was used to form human large intestinal organoids. • EN+RS-246204 group: Basal media supplemented with EGF (E), Noggin (N) and RS-246204 (25 or 50 μM) was used to form human large intestinal organoids.
• RS-246204 group: Basal media supplemented with RS-246204 (25 or 50 μM) was used to form human large intestinal organoids.
Noggin, thiazovivin, CHIR99021, and a pharmaceutically acceptable salt of CHIR99021 was not used in both the control and experimental groups.

[9] = test system: large intestinal organoids; test: Formation of organoids (Example 8), large intestinal; format: cell-based, human
Excerpt: as §3, §4

[10] = test system: small intestinal organoids; test: Organoid circumference by date (growth efficiency); format: cell-based, mouse; details: RS-246204 culture solution vs ENR culture solution, photographed every day
Description: In order to check whether the growth efficiency of the small intestinal organoids grown in the RS-246204 culture solution has a difference, the small intestinal organoids cultured in each culture solution were photographed by an optical microscope every day. The circumference of the individual organoid according to the condition of culture medium and date was measured, and converted into percentage.

[11] = test system: small intestinal organoids; test: CFTR agonist Forskolin analysis (function maintenance); format: cell-based, mouse; details: 4 days culture, then forskolin 5 μM, 1 hour
Description: In order to check whether functions of small intestinal epithelial cells are maintained in the small intestinal organoids cultured using the RS-246204 culture solution, CFTR agonist Forskolin analysis was performed. The forskolin is a compound which stimulates ion channels to open, thereby promoting the release of moisture. In case of small intestinal organoids, moisture gathers into the lumen by the forskolin stimulation and changes into a large spherical shape, thereby confirming the maintenance of the function of epithelial cells. After culturing for 4 days in RS-246204 culture solution and ENR culture solution, respectively, it was replaced with a culture solution to which forskolin was added at a concentration of 5 μM. Photographs were taken by an optical microscope at an interval of 10 minutes for 1 hour immediately after the replacement. Based on the optical micrographs, the free curve tool of Dixi eXcope (Korea) program was used to measure the circumference of each organoid per hour and analyze the change in circumference.

SMILES: Cn1c(Sc2ccc3ccccc3n2)nc2c1c(=O)[nH]c(=O)n2C [RS-246204]
- presence of intestinal stem cells, goblet cells, paneth cells, enteroendocrine cells and enterocyte (RT-PCR markers) ([1]; 4 days culture, Lgr5, muc-1, muc-2, defesing-5, ChgA, villin): all these cells were present
- relative amount of markers expressed (qRT-PCR) ([1]; ENR vs RS-246204 culture solutions): little difference between the ENR and RS-246204 culture solutions
- quantity of organoid calculated from the confluency ([2]; RS 2.5 μM compared with RS 0 μM group): no significant difference
- organoid formation ([2]; RS 2.5 μM in Advanced DMEM/F12, 5 days): human intestinal organoids were formed
- organoid formation ([2]; RS-246204 5, 50 or 100 μM in Advanced DMEM/F12, 5 days): human intestinal organoids were formed
- expression of Muc-2, lysozyme and Ki67 (immunofluorescence staining) [3]: confirm the expression of Muc-2, lysozyme, and Ki67
- growth after subculturing (salivary organoids): can grow even after subculturing
- dose dependence of formation and proliferation (salivary organoids; 1.25 μM, 2.5 μM or 5 μM): form and proliferate in a dose-dependent manner
- formation and proliferation effects (salivary organoids; 1.25 μM, 2.5 μM or 5 μM RS-246204): excellent formation and proliferation effects
- dose dependence of formation and proliferation (adenoid organoids; 2 μM or 5 μM): form and proliferate in a dose-dependent manner
- formation and proliferation effects (adenoid organoids; 2 μM or 5 μM RS-246204): excellent formation and proliferation effects
- growth after subculturing [4]: can grow even after subculturing
- formation and proliferation effects ([4]; 30 μM RS-246204): excellent formation and proliferation effects
- growth of small intestinal organoids ([5]; among the final seven candidate compounds): highest growth of small intestinal organoids among the candidate materials
- growth and maintenance of organoids compared with R-spondin ([5]; numerical data and visual confirmation): could grow and maintain organoids most similar to R-spondin
- killing of organoids ([6]; concentration higher than 50 μM): most organoids were killed
- rate of non-budding organoids ([6]; concentration lower than 50 μM): increased
- growth and maintenance after the subculture [7]: growth and maintenance were also possible even after the subculture
- possibility to subculture ([7]; same manner as ENR culture solution): possible to subculture
- organoid formation ([8]; EN+RS-246204 group: basal media with EGF, Noggin and RS-246204 (25 or 50 μM)): human intestinal organoids were formed
- quantity of organoid calculated from the confluency ([8]; RS-246204 group (25 or 50 μM) compared with ENR or EN+RS-246204 groups): no significant difference
- organoid formation ([8]; RS-246204 group: basal media supplemented with RS-246204 only (25 or 50 μM)): human intestinal organoids were formed
- budding (crypt) formation [9]: grow while forming budding (crypt)
- growth after subculturing [9]: can grow even after subculturing
- formation and proliferation effects ([9]; 20 μM RS-246204): excellent formation and proliferation effects
- growth efficiency and increase rate of the circumference according to date [10]: similarly observed
- function of epithelial cells after forskolin stimulation [11]: performed well as epithelial cells
